Results: patent publication US12351593B2, “Platinum IV complexes with substantially increased antitumor efficacy” (priority 2019, dated 2025)

How the values were obtained:
[1] = test system: cancer cell line Capan-2 (pancreas adenocarcinoma, DSMZ, ACC-245); assay: XTT test of antitumor efficacy in vitro, Capan-2; assay type: cell-based; settings: 72 hours exposure
Excerpt: (§1) XTT method was used in the in vitro experiments. We tested mother platinum (IV) complex TU31 (where X=Cl^−), three new platinum (IV) complexes according to the invention, where X=ClCH2COO^− (complex TU105), F3CCOO^− (complex TU106) and NO3^− (complex TU113), reference platinum (II) complex Oxaliplatin and reference platinum (IV) complex Satraplatin. Two cancer cell lines of heavy-to-treat tumors Capan-2 (pancreas adenocarcinoma) and PC-3 (prostate carcinoma) were used in XTT tests. The obtained results are summarized in the form of IC50 values in the following Table 1:
(§2) Antitumor efficacy of the new Pt(IV) complexes according to the invention was studied on heavy to treat cancer lines of pancreas and prostate. XTT method was used. Results were evaluated in IC50 values and compared with reference Pt(II) complex Oxaliplatin and reference Pt (IV) complex Satraplatin.
(§3) Fresh tumor cell lines were purchased from the Cell Bank to ensure their quality and activities. • a) Capan-2, pancreatic ductal adenocarcinoma, DSMZ, ACC-245 • b) PC-3, prostate carcinoma, ATCC® CRL1435™ Cultivation's Conditions of Tumor Cell Lines: Abbreviation of Used Compounds: • DMSO: dimethyl sulfoxide • PBS: phosphate buffered saline • XTT: 2,3-bis-(2-methoxy-4-nitro-5-sulphophenyl)-2H-tetrazolium-5-carboxanilide salt • PMS: N-methyl-dibenzopyrazinmethylsulfate • FBS: fetal bovine serum • NEAA: non-essential amino acids • L-glu: L-glutamine • DMEM: Dulbecco's Modified Eagle's Medium (SigmaAldrich) • PMS: phenazine methosulfate • Cultivation's conditions: 37° C., 5% CO2 • Growth medium: DMEM, 10% FBS, 2 mM L-glut., NEAA 100× XTT Working Procedure:
(§4) Tested compounds were dissolved in DMSO and diluted by PBS to tested concentration range just before addition to cell lines in wells. PBS was used as a positive control, DMSO in final concentration 20% was used as a negative control. All concentrations of compounds were assayed in triplicates. Each determination was carried out twice and was blinded for experimenter.
(§5) Testing was conducted on a 96-well plate. Dosage of tumor cells was about 2.5. 10^4 cells per well, dosage of growth medium was 100 μl per well. After 24 hours, the growth medium was suck off and 80 μl of fresh growth medium and 20 μl of solution with different concentration of the tested substance were added to wells. After 72 hours, the medium was suck off and 100 μl of a solution of Optimem reagent containing XTT and PMS were added to wells. After another 4 hours, the absorbance was measured at 450 nm (reference was at 630 nm). Results as IC50 were evaluated from the graph of normalized viability of cells plotted against the logarithm of the concentration of the substance.

[2] = test system: cancer cell line PC-3 (prostate carcinoma, ATCC CRL-1435); assay: XTT test of antitumor efficacy in vitro, PC-3; assay type: cell-based; settings: 72 hours exposure
Excerpt: as §1, §2, §3, §4, §5

[3] = test system: PaTu8902, pancreas adenocarcinoma, metastatic, grade II (DSMZ, ACC-179); assay: Antitumor efficacy in vivo, athymic mice model, subcutaneous PaTu8902 tumor; set-up: species or system mice (Athymic Nude-FOXN-1^nu); settings: PaTu8902, oral dose 20 mg/kg; for Average tumor weight 28 d / TWI % (tumor weight inhibition): 28 d; for Average volume of tumor 1 d: day 1; for Average volume of tumor 4 d: day 4; for Average volume of tumor 8 d: day 8; for Average volume of tumor 11 d: day 11; for Average volume of tumor 15 d: day 15; for Average volume of tumor 18 d: day 18; for Average volume of tumor 22 d: day 22; for Average volume of tumor 25 d: day 25; for Average volume of tumor 29 d: day 29; for TVI % (tumor volume inhibition): end of experiment
Excerpt: (§6) Two new platinum (IV) complexes TU105 and TU106 from XTT tests were further studied in vivo on athymic mice model with two pancreatic tumors. The platinum (IV) complex Satraplatin and mother complex TU31 were used as reference compounds again. Two heavy-to-treat tumors of pancreas Capan-2 and PaTu8902 were cultivated and then subcutaneously administered to mice at a dose of 1.10^7 cells/mouse. After an increase in the subcutaneous tumors to a volume of about 0.2 cm^3, two doses of respective complexes 2×20 mg/kg were administered orally every 1 week. Control group of mice received no drug. Volume of tumors were continuously measured throughout the experiment. Three weeks after the second dose, mice were sacrificed, tumors removed, weighed and obtained data were evaluated in the form of tumor volume inhibition in % (TVI %) and tumor weight inhibition in % (TWI %), where: TVI %=100−[(TVexp/TVcont)×100] • TVexp=average volume of cured tumors in cm^3 • TVcont=average volume of control tumors in cm^3 TWI %=100−[(TWexp/TWcont)×100] • TWexp=average weight of cured tumors in g • TWcont=average weight of control tumors in g
(§7) In vivo model: Athymic Nude-FOXN-1^nu, 6 mice per group (3 male+3 female)
(§8) • a) Capan-2, pancreatic adenocarcinoma, ductal (DSMZ, ACC-245) • b) […], pancreatic adenocarcinoma, ductal, high metastatic, grade II (DSMZ, ACC-179) Used Pt (IV) Complexes: • a) the reference Pt (IV) complex Satraplatin, detailed specification, see example 4. • b) the mother Pt (IV) complex TU31, detailed specification, see example 4. • c) the new Pt (IV) complex TU105, detailed specification, see example 4. • d) the new Pt (IV) complex TU106, detailed specification, see example 4. Used Doses for Oral Administration:
(§9) The homogenous bulk composition of the each tested Pt (IV) complex (20 mass. %) with Gelucire 50/13 (80 mass. %) was converted to water emulsion before oral administration to mice.
(§10) Cultivation conditions of cancer cell lines: 37° C., 5% CO2, DMEM (Dulbecco's Modified Eagle's Medium, Sigma Aldrich), 10% FBS, (fetal bovine serum), 2 mM L-glutamin, non-essential aminoacids
(§11) Transplantation of cancer cells: A dose 1×10^7 of cells was subcutaneously transplanted to each experimental mouse, then mice were subdivided into individual experimental groups.
(§12) After an increase in the subcutaneous tumors to a volume of about 0.2 cm^3, two doses of respective complexes 2×20 mg/kg were administered orally every 1 week. The control group of mice received no drug. Volume of tumors were continuously measured throughout the experiment. Three weeks after the second dose, mice were sacrificed, tumors removed, weighed and obtained data were evaluated in the form of tumor volume inhibition in % (TVI %) and tumor weight inhibition in % (TWI %), where: TVI %=100−[(TVexp/TVcont)×100] • TVexp=average volume of cured tumors in cm^3 • TVcont=average volume of control tumors in cm^3 TWI %=100−[(TWexp/TWcont)×100] • TWexp=average weight of cured tumors in g • TWcont=average weight of control tumors in g Obtained Results: […]

[4] = test system: Capan-2, pancreas adenocarcinoma (DSMZ, ACC-245); assay: Antitumor efficacy in vivo, athymic mice model, subcutaneous Capan-2 tumor; set-up: species or system mice (Athymic Nude-FOXN-1^nu); settings: for Average tumor weight 28 d / TWI % (tumor weight inhibition) / Average tumor volume 1 d / Average tumor volume 4 d / Average tumor volume 8 d / Average tumor volume 11 d / Average tumor volume 15 d / Average tumor volume 18 d / Average tumor volume 22 d / Average tumor volume 25 d / Average tumor volume 29 d / TVI % (tumor volume inhibition): Capan-2, oral dose 20 mg/kg; for Average tumor weight 28 d / TWI % (tumor weight inhibition): 28 d; for Average tumor volume 1 d: day 1; for Average tumor volume 4 d: day 4; for Average tumor volume 8 d: day 8; for Average tumor volume 11 d: day 11; for Average tumor volume 15 d: day 15; for Average tumor volume 18 d: day 18; for Average tumor volume 22 d: day 22; for Average tumor volume 25 d: day 25; for Average tumor volume 29 d: day 29; for TVI % (tumor volume inhibition): end of experiment; for anti-tumor efficacy (TWI %), times greater than for reference Satraplatin: both pancreatic tumors Capan-2 and PaTu8902
Excerpt: as §6, §7, §8, §9, §10, §11, §12

Row | Structure (SMILES) | IC50 [1] [nM] | IC50 [2] [nM] | Average tumor weight 28 d [3] [g] | TWI % (tumor weight inhibition) [3] [%] | Average volume of tumor 1 d [3] [cm^3] | Average volume of tumor 4 d [3] [cm^3] | Average volume of tumor 8 d [3] [cm^3] | Average volume of tumor 11 d [3] [cm^3] | Average volume of tumor 15 d [3] [cm^3] | Average volume of tumor 18 d [3] [cm^3] | Average volume of tumor 22 d [3] [cm^3] | Average volume of tumor 25 d [3] [cm^3] | Average volume of tumor 29 d [3] [cm^3] | TVI % (tumor volume inhibition) [3] [%] | Average tumor weight 28 d [4] [g] | TWI % (tumor weight inhibition) [4] [%] | Average tumor volume 1 d [4] [cm^3] | Average tumor volume 4 d [4] [cm^3] | Average tumor volume 8 d [4] [cm^3] | Average tumor volume 11 d [4] [cm^3] | other results
1 | N[C@@H]1CCCC[C@H]1N.O=C([O-])C(=O)[O-].[Pt+2] [Oxaliplatin, (1R,2R-1,2-cyclohexanediamine-N,N′) (ethanedioato-O,O′) platinum (II), reference compound] | > 100000 | 55700 |  |  |  |  |  |  |  |  |  |  |  |  |  |  |  |  |  |  | 
2 | [NH3+][Pt-2]([Cl])([NH2+]C12CC3CC(CC(C3)C1)C2)([O]C(=O)C12CC3CC(CC(C3)C1)C2)([O]C(=O)C12CC3CC(CC(C3)C1)C2)[O][N+](=O)[O-] [TU113, cis-(ammine,1-adamantylamine)-trans-bis(1-adamantylcarboxylate)-cis-(chloride, nitrate) Pt (IV)] | 110 | 230 |  |  |  |  |  |  |  |  |  |  |  |  |  |  |  |  |  |  | 
3 | N.NC12CC3CC(CC(C3)C1)C2.O=C([O-])C(F)(F)F.O=C([O-])C12CC3CC(CC(C3)C1)C2.O=C([O-])C12CC3CC(CC(C3)C1)C2.[Cl-].[Pt+4] [TU106, cis-(ammine,1-adamantylamine)-trans-bis(1-adamantylcarboxylate)-cis-(chloride, trifluoroacetate) Pt (IV)] | 20 | 70 | 2.317 | 71.7 | 0.21 | 0.21 | 0.37 | 0.60 | 1.01 | 1.60 | 2.35 | 3.27 | 4.20 | 69.2 | 0.166 | 79.1 | 0.21 | 0.21 | 0.23 | 0.24 | Average tumor volume 15 d [4]: 0.25 cm^3; Average tumor volume 18 d [4]: 0.26 cm^3; Average tumor volume 22 d [4]: 0.28 cm^3; Average tumor volume 25 d [4]: 0.29 cm^3; Average tumor volume 29 d [4]: 0.31 cm^3; TVI % (tumor volume inhibition) [4]: 69.0%; anti-tumor efficacy (TWI %), times greater than for reference Satraplatin [4]: about 7 times
4 | [NH3+][Pt-2]([Cl])([NH2+]C12CC3CC(CC(C3)C1)C2)([O]C(=O)CCl)([O]C(=O)C12CC3CC(CC(C3)C1)C2)[O]C(=O)C12CC3CC(CC(C3)C1)C2 [TU105, cis-(ammine,1-adamantylamine)-trans-bis(1-adamantylcarboxylate)-cis-(chloride, monochloroacetate) Pt (IV)] | 40 | 60 | 2.522 | 69.2 | 0.21 | 0.21 | 0.40 | 0.62 | 1.06 | 1.65 | 2.46 | 3.40 | 4.35 | 68.1 | 0.213 | 73.1 | 0.20 | 0.21 | 0.22 | 0.23 | Average tumor volume 15 d [4]: 0.27 cm^3; Average tumor volume 18 d [4]: 0.30 cm^3; Average tumor volume 22 d [4]: 0.34 cm^3; Average tumor volume 25 d [4]: 0.37 cm^3; Average tumor volume 29 d [4]: 0.40 cm^3; TVI % (tumor volume inhibition) [4]: 60.0%; anti-tumor efficacy (TWI %), times greater than for reference Satraplatin [4]: about 7 times
5 | CC(=O)[O][Pt]([NH2])([Cl])([Cl])([NH]C1CCCCC1)[O]C(C)=O [Satraplatin, cis-(ammine, cyclohexylamine)-trans-bis-acetate-cis-dichloride Pt(IV), reference compound] | > 30000 | 10200 | 7.245 | 11.5 | 0.21 | 0.50 | 0.99 | 1.94 | 3.10 | 4.80 | 6.80 | 9.35 | 11.90 | 12.8 | 0.711 | 10.3 | 0.21 | 0.23 | 0.30 | 0.39 | Average tumor volume 15 d [4]: 0.47 cm^3; Average tumor volume 18 d [4]: 0.56 cm^3; Average tumor volume 22 d [4]: 0.66 cm^3; Average tumor volume 25 d [4]: 0.77 cm^3; Average tumor volume 29 d [4]: 0.90 cm^3; TVI % (tumor volume inhibition) [4]: 10.0%
